Assay results reported in ChEMBL document CHEMBL5108050, “Discovery of a New Class of Uracil Derivatives as Potential Mixed Lineage Kinase Domain-like Protein (MLKL) Inhibitors” (J Med Chem, 2022).

Key:
[1] = system: HT-29; assay: Anti-necroptic activity in human HT-29 cells assessed as inhibition of TSZ (TNFalpha, Smac mimetic and z-VAD-FMK) induced necroptosis incubated for 24 hrs by celltiter-glo luminescent cell viability assay; type: functional, cell-based; conditions: HT-29, 24 h
[2] = target: Receptor-interacting serine/threonine-protein kinase 3 (Homo sapiens) (UniProt Q9Y572); assay: Inhibition of full length RIP3 (unknown origin) assessed as substrate phosphorylation using MBP and ATP as substrate at 10 uM preincubated for 15 mins followed by substrate addition and measured after 90 mins by ADP-Glo luminescence assay; values are per cent of control; conditions: time 105.0 min
Sequence of Receptor-interacting serine/threonine-protein kinase 3 (Homo sapiens) (Q9Y572 whole entry, looked up, the tested form may be a part): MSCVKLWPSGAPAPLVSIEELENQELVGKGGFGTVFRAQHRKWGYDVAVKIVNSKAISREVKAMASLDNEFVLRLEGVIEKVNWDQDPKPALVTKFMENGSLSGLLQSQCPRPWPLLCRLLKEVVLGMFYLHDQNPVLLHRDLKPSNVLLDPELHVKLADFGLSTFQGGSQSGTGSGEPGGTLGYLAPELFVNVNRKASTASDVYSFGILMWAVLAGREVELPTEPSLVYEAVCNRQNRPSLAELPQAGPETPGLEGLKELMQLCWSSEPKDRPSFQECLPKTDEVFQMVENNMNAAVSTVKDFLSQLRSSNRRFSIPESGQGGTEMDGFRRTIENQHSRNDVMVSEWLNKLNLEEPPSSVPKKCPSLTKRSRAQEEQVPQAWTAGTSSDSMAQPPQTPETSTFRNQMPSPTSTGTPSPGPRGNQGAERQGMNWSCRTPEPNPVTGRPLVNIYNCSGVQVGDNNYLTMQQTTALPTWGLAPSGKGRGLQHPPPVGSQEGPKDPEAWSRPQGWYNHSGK

[3] = target: Receptor-interacting serine/threonine-protein kinase 3 (Homo sapiens) (UniProt Q9Y572); assay: Inhibition of full length RIP3 (unknown origin) assessed as substrate phosphorylation using MBP and ATP as substrate at 1 uM preincubated for 15 mins followed by substrate addition and measured after 90 mins by ADP-Glo luminescence assay; values are per cent of control; conditions: time 105.0 min
[4] = target: T1, Receptor-interacting serine/threonine-protein kinase 1 (Homo sapiens) (UniProt Q13546); assay: Inhibition of RIP1 (1 to 375 residues) (unknown origin) assessed as substrate phosphorylation using MBP and ATP as substrate at 10 uM preincubated for 15 mins followed by substrate addition and measured after 90 mins by ADP-Glo luminescence assay; values are per cent of control; conditions: time 105.0 min
T1 sequence (whole entry): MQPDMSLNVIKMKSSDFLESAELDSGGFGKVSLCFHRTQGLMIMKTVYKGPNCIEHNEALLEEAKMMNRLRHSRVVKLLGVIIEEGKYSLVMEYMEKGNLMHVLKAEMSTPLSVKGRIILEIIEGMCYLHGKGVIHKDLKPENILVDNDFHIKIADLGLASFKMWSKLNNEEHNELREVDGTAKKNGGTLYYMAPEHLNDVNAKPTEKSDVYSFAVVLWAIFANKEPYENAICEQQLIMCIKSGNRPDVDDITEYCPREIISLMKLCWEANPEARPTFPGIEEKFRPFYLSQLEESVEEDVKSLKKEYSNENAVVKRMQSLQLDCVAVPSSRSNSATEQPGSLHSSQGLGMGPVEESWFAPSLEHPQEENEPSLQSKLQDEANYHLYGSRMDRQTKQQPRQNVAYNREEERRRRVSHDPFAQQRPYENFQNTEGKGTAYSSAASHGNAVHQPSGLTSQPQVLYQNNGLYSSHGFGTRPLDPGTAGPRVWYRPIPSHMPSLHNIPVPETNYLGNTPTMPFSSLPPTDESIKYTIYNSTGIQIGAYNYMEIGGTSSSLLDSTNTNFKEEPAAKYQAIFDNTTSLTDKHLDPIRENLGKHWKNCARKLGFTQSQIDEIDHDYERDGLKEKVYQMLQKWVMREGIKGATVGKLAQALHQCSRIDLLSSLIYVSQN

[5] = target: T1, Receptor-interacting serine/threonine-protein kinase 1 (Homo sapiens); assay: Inhibition of RIP1 (1 to 375 residues) (unknown origin) assessed as substrate phosphorylation using MBP and ATP as substrate at 1 uM preincubated for 15 mins followed by substrate addition and measured after 90 mins by ADP-Glo luminescence assay; values are per cent of control; conditions: time 105.0 min

SMILES	EC50 [1]	further results
COCCOCC(=O)Nc1c(Cl)n(CC#Cc2cccc(O)c2)c(=O)n(C)c1=O	4270 nM	
Cc1ccc(CCC(=O)Nc2c(Cl)n(CC#Cc3ccc(NCc4ccccc4)cc3)c(=O)n(C)c2=O)cc1	2020 nM	
Cc1ccc(CCC(=O)Nc2c(Cl)n(CC#Cc3cccc(N)c3)c(=O)n(C)c2=O)cc1	1060 nM	
CCn1c(=O)c(NC(=O)CCc2ccc(C)cc2)c(Cl)n(CC#Cc2ccc(O)cc2)c1=O	2220 nM	
Cn1c(=O)c(NC(=O)Cc2ccccc2F)c(Cl)n(CC#Cc2cccc(O)c2)c1=O	3350 nM	
Cn1c(=O)c(NC(=O)CCCc2ccccc2)c(Cl)n(CC#Cc2cccc(O)c2)c1=O	> 10000 nM	
CC(=O)Nc1cccc(C#CCn2c(Cl)c(NC(=O)CCc3ccc(C)cc3)c(=O)n(C)c2=O)c1	870 nM	
Cn1c(=O)c(NC(=O)CCc2ccccc2)c(Cl)n(CC#Cc2cccc(O)c2)c1=O	1070 nM	
Cc1ccc(CCC(=O)Nc2c(Cl)n(CC#Cc3ccc4cc[nH]c4c3)c(=O)n(C)c2=O)cc1	727 nM	
CC(=O)Nc1ccc(C#CCn2c(Cl)c(NC(=O)CCc3ccc(C)cc3)c(=O)n(C)c2=O)cc1	717 nM	
Cc1ccc(CCC(=O)Nc2c(Cl)n(CC#Cc3cccc(O)c3)c(=O)n(C)c2=O)cc1	316 nM	
CCC(C)C(=O)Nc1c(Cl)n(CC#Cc2cccc(O)c2)c(=O)n(C)c1=O (stereo not given)	1740 nM	
C=CC(=O)Nc1c(C)n(CC#Cc2cccc(O)c2)c(=O)n(C)c1=O	> 10000 nM	
Cc1ccc(CCC(=O)Nc2c(Cl)n(CC#Cc3ccc(NC(=O)c4ccccc4)cc3)c(=O)n(C)c2=O)cc1	214 nM	
COc1ccc(C#CCn2c(Cl)c(NC(=O)CCc3ccc(C)cc3)c(=O)n(C)c2=O)cc1	3390 nM	
CCc1ccc(CCC(=O)Nc2c(Cl)n(CC#Cc3cccc(O)c3)c(=O)n(C)c2=O)cc1	998 nM	
Cc1ccc(CCC(=O)Nc2c(Cl)n(CC#Cc3cccc(Cn4ccccc4=O)c3)c(=O)n(C)c2=O)cc1	136 nM	
C#CCn1c(Cl)c(NC(=O)CCc2ccc(C)cc2)c(=O)n(C)c1=O	7240 nM	
Cc1ccc(CCC(=O)Nc2c(Cl)n(CC#Cc3ccc4[nH]ccc4c3)c(=O)n(C)c2=O)cc1	332 nM	
COc1ccn(Cc2cccc(C#CCn3c(Cl)c(NC(=O)CCc4ccc(C)cc4)c(=O)n(C)c3=O)c2)c(=O)c1	93 nM	
CCCn1c(=O)c(NC(=O)CCc2ccc(C)cc2)c(Cl)n(CC#Cc2ccc(O)cc2)c1=O	1020 nM	
Cn1c(=O)c(NC(=O)CCc2ccccc2F)c(Cl)n(CC#Cc2cccc(O)c2)c1=O	829 nM	

SMILES	EC50 [1]	further results
CCCCCCCC(=O)Nc1c(Cl)n(CC#Cc2cccc(O)c2)c(=O)n(C)c1=O	2340 nM	
Cn1c(=O)c(NC(=O)CCc2ccc(C#N)cc2)c(Cl)n(CC#Cc2cccc(O)c2)c1=O	639 nM	
Cc1ccc(CCC(=O)Nc2c(Cl)n(CC#Cc3cccc(Cn4cc(C)ccc4=O)c3)c(=O)n(C)c2=O)cc1	158 nM	
Cc1ccc(CCC(=O)Nc2c(Cl)n(CC#Cc3ccc(F)c(Cn4ccccc4=O)c3)c(=O)n(C)c2=O)cc1	139 nM	
Cc1ccc(CCC(=O)Nc2c(Cl)n(CC#Cc3ccc(O)cc3)c(=O)n(C)c2=O)cc1	222 nM	residual activity [2]: 102%; residual activity [3]: 90.5%; residual activity [4]: 96.1%; residual activity [5]: 92.1%
Cc1ccc(CCC(=O)Nc2c(Cl)n(CC#Cc3cccc(Cn4cccc(C)c4=O)c3)c(=O)n(C)c2=O)cc1	134 nM	
C=CC(=O)Nc1c(OC)n(CC#Cc2cccc(O)c2)c(=O)n(C)c1=O	> 10000 nM	
C=CC(=O)Nc1c(Cl)n(CC#Cc2cccc(O)c2)c(=O)n(C)c1=O	950 nM	residual activity [2]: 108%; residual activity [3]: 102%; residual activity [4]: 86.2%; residual activity [5]: 84.2%
Cc1ccc(CCC(=O)Nc2c(Cl)n(CC#Cc3ccc4c(c3)CCC(=O)N4)c(=O)n(C)c2=O)cc1	132 nM	residual activity [2]: 90.5%; residual activity [3]: 102%; residual activity [4]: 94.5%; residual activity [5]: 109%
COc1ccc(CC(=O)Nc2c(Cl)n(CC#Cc3cccc(O)c3)c(=O)n(C)c2=O)cc1	1400 nM	
Cc1ccc(CCC(=O)Nc2c(Cl)n(CC#Cc3ccc(Cn4ccccc4=O)cc3)c(=O)n(C)c2=O)cc1	168 nM	
Cc1ccc(CCC(=O)Nc2c(Cl)n(CC#Cc3cccc(Cn4ccc(C)cc4=O)c3)c(=O)n(C)c2=O)cc1	106 nM	
C=CS(=O)(=O)Nc1cn(CC#Cc2cccc(O)c2)c(=O)n(C)c1=O	2480 nM	
COc1ccc(C#CCn2c(Cl)c(NC(=O)CCc3ccc(C)cc3)c(=O)n(C)c2=O)cc1Cn1ccccc1=O	85 nM	
Cn1c(=O)c(NC(=O)CCc2cccc(F)c2)c(Cl)n(CC#Cc2cccc(O)c2)c1=O	6300 nM	
Cn1c(=O)c(NC(=O)CCc2ccc(F)cc2)c(Cl)n(CC#Cc2cccc(O)c2)c1=O	455 nM	
Cc1ccc(CCC(=O)Nc2c(Cl)n(CC#Cc3ccc4c(c3)CCC(=O)N4C)c(=O)n(C)c2=O)cc1	281 nM	
Cc1ccc(C(=O)Nc2ccc(CN3CCN(C)CC3)c(C(F)(F)F)c2)cc1C#Cc1cnc2cccnn12 [PONATINIB]	440 nM	residual activity [2]: 0.31%; residual activity [3]: 0.97%; residual activity [4]: 0.4%; residual activity [5]: 3.8%
Cn1c(=O)c(NC(=O)Cc2cccc(F)c2)c(Cl)n(CC#Cc2cccc(O)c2)c1=O	2320 nM	
Cn1c(=O)c(NC(=O)CCc2ccc(Cl)cc2)c(Cl)n(CC#Cc2cccc(O)c2)c1=O	540 nM	
C=CS(=O)(=O)Nc1c(OC)n(CC#Cc2cccc(O)c2)c(=O)n(C)c1=O	> 10000 nM	
CCC(=O)Nc1c(Cl)n(CC#Cc2cccc(O)c2)c(=O)n(C)c1=O	3380 nM	

SMILES	EC50 [1]	further results
Cc1ccc(CCC(=O)Nc2c(Cl)n(CC#Cc3ccc4c(c3)CCC(=O)O4)c(=O)n(C)c2=O)cc1	113 nM	
Cc1ccc(CCC(=O)Nc2c(Cl)n(CC#Cc3ccc(N)cc3)c(=O)n(C)c2=O)cc1	1020 nM	
COc1cccn(Cc2cc(C#CCn3c(Cl)c(NC(=O)CCc4ccc(C)cc4)c(=O)n(C)c3=O)ccc2Cl)c1=O	90 nM	
Cc1ccc(CCC(=O)Nc2c(Cl)n(CC#Cc3cccc(NC(=O)c4ccccc4)c3)c(=O)n(C)c2=O)cc1	1000 nM	
CCC(C)(C)C(=O)Nc1c(Cl)n(CC#Cc2cccc(O)c2)c(=O)n(C)c1=O	> 10000 nM	
Cn1c(=O)c(NC(=O)Cc2ccc(Cl)cc2)c(Cl)n(CC#Cc2cccc(O)c2)c1=O	3770 nM	
Cc1ccc(CCC(=O)Nc2c(Cl)n(CC#Cc3cccc(Cn4c(C)cccc4=O)c3)c(=O)n(C)c2=O)cc1	122 nM	
Cn1c(=O)c(NC(=O)Cc2ccc(F)cc2)c(Cl)n(CC#Cc2cccc(O)c2)c1=O	4600 nM	
C=CC(=O)Nc1cn(CC#Cc2cccc(O)c2)c(=O)n(C)c1=O	> 10000 nM	
COc1cccn(Cc2cccc(C#CCn3c(Cl)c(NC(=O)CCc4ccc(C)cc4)c(=O)n(C)c3=O)c2)c1=O	82 nM	
Cc1ccc(CCC(=O)Nc2c(Cl)n(CC#Cc3ccc(O)cc3)c(=O)n(CC3CCCC3)c2=O)cc1	> 10000 nM	
C=CS(=O)(=O)Nc1c(Cl)n(CC#Cc2cccc(O)c2)c(=O)n(C)c1=O	5680 nM	
COc1cccn(Cc2cc(C#CCn3c(Cl)c(NC(=O)CCc4ccc(C)cc4)c(=O)n(C)c3=O)ccc2F)c1=O	91 nM	
COc1ccc(C#CCn2c(Cl)c(NC(=O)CCc3ccc(C)cc3)c(=O)n(C)c2=O)cc1Cn1cccc(OC)c1=O	85 nM	residual activity [2]: 99.3%; residual activity [3]: 96.3%; residual activity [4]: 101%; residual activity [5]: 111%
Cn1c(=O)c(NC(=O)CC(C)(C)C)c(Cl)n(CC#Cc2cccc(O)c2)c1=O	5280 nM	
Cc1ccc(CCC(=O)Nc2c(Cl)n(CC#Cc3ccccc3)c(=O)n(C)c2=O)cc1	1990 nM	
Cn1c(=O)c(NC(=O)Cc2ccccc2)c(Cl)n(CC#Cc2cccc(O)c2)c1=O	1490 nM	
Cc1ccc(CCC(=O)Nc2c(Cl)n(CC#Cc3ccc(Cl)c(Cn4ccccc4=O)c3)c(=O)n(C)c2=O)cc1	110 nM	
Cn1c(=O)c(NC(=O)c2ccccc2)c(Cl)n(CC#Cc2cccc(O)c2)c1=O	> 10000 nM	
Cn1c(=O)c(NC(=O)/C=C/c2ccccc2)c(Cl)n(CC#Cc2cccc(O)c2)c1=O	> 10000 nM	
C=CS(=O)(=O)Nc1c(C)n(CC#Cc2cccc(O)c2)c(=O)n(C)c1=O	> 10000 nM	
